Measurements as given in patent publication US20020115212A1, “Enchanced PKR expression and cytokine production” (priority 2000, published 2002).

What was measured:
[1] = system: IFN-alpha production in Namalwa PKR++41.027 and WT Namalwa cells; assay: IFN-alpha production (ELISA) after PMA priming and Sendai virus or poly I:C induction in the presence of 2-aminopurine; assay type: cell-based, human; settings: 5 mM 2-aminopurine, 20 nM PMA 24 hr, Namalwa PKR++41.027 and WT cells
Description: Parallel experiments were performed on duplicate cultures of the individual subclones of Namalwa PKR++41.027 cells and WT Namalwa cells. These cultures were also pretreated with 20 nM phorbol myristate acetate at a cell density 5.0×10^5 cells/ml, in 6 well plates for 24 hr followed by treatment with 500 HAU/ml Sendai virus or poly I:C (200 μg/ml) plus 10 μg/ml DEAE Dextran. In addition these cultures were also treated with the PKR inhibitor 5 mM 2-aminopurine (2AP; obtained from Aldrich Chemical Company). Culture supernatants from the Sendai virus-induced cells were removed at 24 hr, post-induction and culture supernatants from the Poly I:C-induced cells were removed at 72 hr and evaluated for IFN alpha production using ELISA (PBL Catalogue No. 41105 Human Interferon Alpha Multi-Species ELISA Kit).

[2] = system: proinflammatory cytokines; assay: Induction of other proinflammatory cytokines by virus or poly I:C in the presence of 2-aminopurine; assay type: cell-based; settings: results not shown
[3] = biological target: PKR (Homo sapiens, UniProt P19525); settings: stated as known; cited from earlier work
[4] = system: IFN-alpha production in Namalwa PKR++41.027 and WT Namalwa cells; assay: IFN-alpha production (ELISA) after PMA priming and poly I:C induction; assay type: cell-based, human; settings: 20 nM PMA 24 hr, 200 μg/mL poly I:C plus 10 μg/mL DEAE Dextran, 72 hr
Description: Cells from individual subclones of Namalwa PKR++41.027 cells and WT Namalwa cells were pretreated with 20 nM phorbol myristate acetate at a cell density 5.0×10^5 cells/ml, in 6 well plates for 24 hrs followed by treatment with 500 HAU/ml Sendai virus or 200 μg/mL poly I:C plus 10 μg/mL DEAE Dextran for an additional 72 hr to induce IFN expression. Culture supernatants from the Sendai virus-treated cells were removed at 24 hr and 48 hr post-induction and supernatants from the Poly I:C treated cells were removed at 72 hr. IFN-alpha production was measured in these cell culture supernates using ELISA (Human Interferon Alpha Multi-Species ELISA Kit obtained from PBL).
FIG. 5 illustrates IFN-alpha production was enhanced following both Sendai virus and PolyI:C induction in Namalwa PKR++41.027 cells relative to IFN-alpha production by wild type Namalwa cells as shown in FIG. 5.

PKR, sequence (P19525 whole entry): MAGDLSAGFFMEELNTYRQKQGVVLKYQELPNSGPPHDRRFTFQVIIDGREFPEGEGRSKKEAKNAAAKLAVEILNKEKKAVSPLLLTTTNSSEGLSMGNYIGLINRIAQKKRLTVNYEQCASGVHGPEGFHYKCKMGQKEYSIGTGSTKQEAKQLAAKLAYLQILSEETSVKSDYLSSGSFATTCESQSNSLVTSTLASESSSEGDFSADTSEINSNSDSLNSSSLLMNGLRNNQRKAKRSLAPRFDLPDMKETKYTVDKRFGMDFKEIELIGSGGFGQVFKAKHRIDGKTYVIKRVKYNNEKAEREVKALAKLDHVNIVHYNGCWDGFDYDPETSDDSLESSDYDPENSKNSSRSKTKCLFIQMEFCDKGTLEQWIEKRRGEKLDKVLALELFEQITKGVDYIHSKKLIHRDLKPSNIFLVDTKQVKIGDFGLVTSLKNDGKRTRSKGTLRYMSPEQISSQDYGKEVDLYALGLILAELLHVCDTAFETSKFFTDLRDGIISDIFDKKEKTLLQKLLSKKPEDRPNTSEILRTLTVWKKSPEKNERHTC

Molecule | IFN-alpha production following Sendai virus induction ([1]; 500 HAU/ml Sendai virus, supernatant at 24 hr) | IFN-alpha production following poly I:C induction ([1]; poly I:C 200 μg/ml plus 10 μg/ml DEAE Dextran, supernatant at 72 hr) | induction of other proinflammatory cytokines by virus or poly I:C [2] | PKR kinase activity [3] | IFN-alpha induction in Namalwa PKR++41.027 cells [4] | IFN-alpha induction in parental wild type Namalwa cells [4]
Nc1ncc2[nH]cnc2n1 [2-aminopurine] | decreased | decreased | inhibits | known inhibitor | – | –
poly I:C | – | – | – | – | capable of inducing IFN | absence of detectable IFN-alpha induction
